According to US10076535B2, “Use of CPG oligonucleotides co-formulated with an antibiotic to accelerate wound healing” (THE UNITED STATES OF AMERICA, as represented by the …, priority 2012, dated 2018):
Entries after “also recorded” stand apart in the source; their conditions may differ.

Legend:
BALB/c mice = test: Murine in vivo wound repair model (6 mm full-thickness excisional punch biopsy); details: for effect on delay in wound healing caused by antibiotic: TLR ligand incorporated into / co-administered with antibiotic ointment; for effect on wound healing: simply applied over a pre-existing layer of antibiotic ointment or petrolatum
Experimental: The wound repair model of Devalaraja et al (J Invest Dermatol 2000; 115: 234-44) was used. Skin on the back was shaved and treated antibiotic ointment or petrolatum. In some studies, mice were injected s.c. at the base of the tail with 50 ug/g of vancomycin and imipenrm/cilastatin (Fernandez et al., Antimicrob Agents Chemother 2010; 54: 116-25, 2010). Fourteen days later, the mice were anesthetized by intraperitoneal injection of ketamine (80 μg/g) plus xylazine (10 ug/g). The skin on the back was gently cleaned with PBS. A 6 mm full-thickness excisional punch biopsy (including the Pannilulus carnosus) was taken using an ACU-PUNCH® (Fort Lauderdale, Fla.) from the right and left upper paravertebral region of each animal. Individual biopsy sites were coated with 100 μl of antibiotic ointment±50 μg CpG ODN and/or 5 μg IMQ, and then covered with nonadhesive sterile gauze (Sato et al., Wound Repair Regen 2010; 18: 586-93). Mice were wrapped with a form-fitting bandage to further protect the biopsy sites. Wound contraction was recorded every other day by digital photography and changes calculated using NIH Image J software (available on the internet, version 1.37). Each treatment was tested and results averaged in a minimum of five independent animals/group.
A well-established murine model of wound healing was used to evaluate the effect of antibiotic treatment on the rate of wound repair (Devalaraja et al., J Invest Dermatol 2000; 115: 234-44). Identical full-thickness excisional biopsies were taken from skin sites treated with either antibiotic ointment or petrolatum (different treatments were administered to contralateral sides of each animal). Sequential photographs provided a permanent record of the speed of wound closure. Untreated biopsy sites and sites treated with petrolatum (ointment control), healed at nearly identical rates.

CCL2 mRNA = test: Quantitative RT-PCR of mRNA at the wound site; format: in vivo, mice; details: added to antibiotic ointment; day 3; p<0.05
Experimental: (§1) Tissue from the biopsy site was excised, homogenized in Trizol, and extracted with chloroform. […] 1 μg of total RNA was reverse-transcribed using the QUANTITECT™ Reverse Transcription. Kit (QIAGEN®). Purified cDNA was used as the template for quantitative RT-PCR conducted using pre-designed primer/probe sets for interleucin (IL)-1β, CCL2, IFNa, IFNβ, basic fibroblast growth factor (FGF), transforming growth factor (TGF)β, and glyceraldehyde 3-phosphate dehydrogenase (GAPDH) (Applied Biosystems, Foster City, Calif.). Gene expression levels were analyzed using the STEPONEPLUS™ RT-PCR system (APPLIED BIOSYSTEMS®). All reagents and probes used in this system were purchased from APPLIED BIOSYSTEMS®.

IFNa = test: Quantitative RT-PCR of mRNA at the wound site; format: in vivo, mice; details: day 3 after biopsy
Experimental: as §1

IFNβ = test: Quantitative RT-PCR of mRNA at the wound site; format: in vivo, mice; details: day 3 after biopsy
Experimental: as §1

TGFβ = test: Quantitative RT-PCR of mRNA at the wound site; format: in vivo, mice; details: Bx sites on day 3
Experimental: (§2) FIG. 6 is a bar graph of the effect of antibiotic ointment on the levels of b-FGF and TGFβ mRNA. Mice were treated as described in FIG. 3. Total RNA was extracted from the Bx sites on day 3. Quantitative RT-PCR was performed to detect b-FGF and TGFβ. Results represent the mean±SE of at least 4 independent samples/treatment group. *p<0.05 vs untreated group.
as §1

b-FGF = test: Quantitative RT-PCR of mRNA at the wound site; format: in vivo, mice; details: Bx sites on day 3
Experimental: as §2, §1

IL-1β mRNA = test: Quantitative RT-PCR of mRNA at the wound site; format: in vivo, mice; details: added to antibiotic ointment; day 3; p<0.05
Experimental: as §1

mice = details: topical administration; cited from earlier work
macaques = details: topical administration; cited from earlier work

Molecule	effect on delay in wound healing caused by antibiotic (BALB/c mice)	effect on wound healing (BALB/c mice)	effect on antibiotic-reduced CCL2 mRNA level (CCL2 mRNA)	expression of IFNa at the biopsy site (IFNa)	expression of IFNβ at the biopsy site (IFNβ)	expression of mRNA encoding TGFβ (TGFβ)	expression of b-FGF at the wound site (b-FGF)	effect on antibiotic-reduced IL-1β mRNA level (IL-1β mRNA)	wound closure (mice)	wound closure (macaques)
CC(C)Cn1cnc2c(N)nc3ccccc3c21 [IMQ, 1-isobutyl-1H-imidazo[4,5-c]quinolin-4-amine, reference compound]	completely corrected the delay in wound healing; also recorded: reversed	no effect on wound healing	to a lesser extent IMQ corrected these defects	reversed	reversed	up-regulated	increased			
CpG ODN: Phosphorothioate K-type CpG ODN 1555, sequence GCTAGACGTTAGCGT, SEQ ID NO: 30 (DNA, all phosphorothioate, methylation of C not given here)	completely corrected the delay in wound healing; also recorded: reversed	no effect on wound healing	corrected these defects	reversed	reversed	up-regulated	increased	corrected these defects	significantly accelerated wound closure	significantly accelerated wound closure
